Source: patent US20190375708A1 (VenatoRx Pharmaceuticals, Inc., priority 2018, published 2019)

Assays:
[1] = tested on: HBV replication in HepAD38 cells; experiment: Anti-HBV replication assay in HepAD38 cells (QPCR of extracellular HBV DNA); type: cell-based, HBV (genotype D, serotype ayw); details: 7 days incubation, extracellular HBV DNA by QPCR, read-out: Anti-HBV EC50
How it was run: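 Compounds (1 log10 serial dilutions, […]) were left 7 days on tetracycline-free HepAD38 cultures, a HepG2 line with tet-controlled HBV genotype D. EC50 came from 4-parameter regression of percent inhibition versus vehicle, using supernatant HBV DNA copies/mL measured by QPCR.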

HepG2 cells = experiment: In vitro cytotoxicity assay (MTT cell viability) in HepG2 cells; type: cell-based, human; details: HepG2 cells, MTT cell viability, 7-day incubation, tested 30 μM to 1.0 nM; read-out: HepG2 CC50
How it was run: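 HepG2 seeded overnight, then 7-day compound exposure (30 μM–1.0 nM, half-log steps), 37 °C. MTT 3-4 h, DMSO solubilization, A492. % of vehicle → CC50, 4-PL fit.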

HBV = details: Phase 1b clinical trial, 600 mg bid dosing for 29 days; cited from earlier work

Compound | EC50 [1] | CC50 (HepG2 cells) | reduction in HBV DNA (HBV)
Cc1cc(NC(=O)c2c(C)c(C(=O)C3=Nc4ccccc4B(O)O3)n(C)c2C)ccc1F [Example 256, N-(4-fluoro-3-methylphenyl)-5-(1-hydroxy-1H-enxo[c][1,5,2]oxazaborinine-3-carbonyl)-1,2,4-trimethyl-1H-pyrrole-3-carboxamide] | 50 to 499 nM | 5000 to 30000 nM | 
O=C(Nc1cc(F)c(F)c(F)c1)c1ccc(F)c(S(=O)(=O)N2CCC(O)CC2)c1 [NVR 3-778] |  |  | −1.7 log 10
N-(4-fluoro-3-methylphenyl)-1,2,4-trimethyl-5-(2-(((1s,4s)-4-morpholinocyclohexyl)amino)-2-oxoacetyl)-1H-pyrrole-3-carboxamide [Example 265] | 50 to 499 nM | > 30000 nM | 
Cc1c(C(=O)Nc2ccc(F)nc2)c(C)n(C)c1C(=O)C(=O)N[C@]12C[C@@H]3C[C@@H](C[C@H]1C3)C2 [Example 19, N-(6-fluoropyridin-3-yl)-5-(2-(((2R,3as,5S,6as)-hexahydro-2,5-methanopentalen-3a(1H)-yl)amino)-2-oxoacetyl)-1,2,4-trimethyl-1H-pyrrole-3-carboxamide] | < 50 nM | 5000 to 30000 nM | 
